# Reference: ChEMBL document CHEMBL1201862, “PubChem BioAssay data set” (2004)
#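 Five concentrations, 48 hours, 96-well plates. GI50 = concentration required for 50% inhibition of growth.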 Activity calls are given as the source filed them. Cut-off read from the data, not from the text of the source: active = GI50 up to about 1.1 µM and inactive = higher.
# Assays:
# Test in all cases: inhibition of tumour cell growth, NCI panel, 48 h
# EKVX = system: EKVX
# M14 = system: M14
# MDA-MB-231 = system: MDA-MB-231
# LOX IMVI = system: LOX IMVI
# A549 = system: A549
# NCI-H460 = system: NCI-H460
# HT-29 = system: HT-29
# T47D = system: T47D
# OVCAR-8 = system: OVCAR-8
# SK-OV-3 = system: SK-OV-3
# CCRF-CEM = system: CCRF-CEM
# SK-MEL-5 = system: SK-MEL-5
# U-251 = system: U-251
# SK-MEL-2 = system: SK-MEL-2
# CAKI-1 = system: CAKI-1
# 786-0 = system: 786-0
# MDA-MB-435 = system: MDA-MB-435
# BT-549 = system: BT-549
# NCI-H23 = system: NCI-H23
# TK-10 = system: TK-10
# UACC-257 = system: UACC-257
# NCI-H226 = system: NCI-H226
# SW-620 = system: SW-620
# SF-268 = system: SF-268
# KM12 = system: KM12
# HL-60 = system: HL-60
# UACC-62 = system: UACC-62
# ACHN = system: ACHN
# HOP-62 = system: HOP-62
# OVCAR-3 = system: OVCAR-3
# SF-539 = system: SF-539
# HCT-15 = system: HCT-15
# OVCAR-5 = system: OVCAR-5
# SN12C = system: SN12C
# Hs-578T = system: Hs-578T
# SNB-75 = system: SNB-75
# PC-3 = system: PC-3
# IGROV-1 = system: IGROV-1
# DU-145 = system: DU-145
# NCI-H522 = system: NCI-H522
# MOLT-4 = system: MOLT-4
# RPMI-8226 = system: RPMI-8226
# K562 = system: K562
# SK-MEL-28 = system: SK-MEL-28
# COLO 205 = system: COLO 205
# MCF7 = system: MCF7
# SF-295 = system: SF-295
# A498 = system: A498
# MDA-N = system: MDA-N
# SR = system: SR
# HCC 2998 = system: HCC 2998
# HCT-116 = system: HCT-116
# SNB-19 = system: SNB-19
# OVCAR-4 = system: OVCAR-4
# Malme-3M = system: Malme-3M
# RXF 393 = system: RXF 393
# NCI/ADR-RES = system: NCI/ADR-RES
# HOP-92 = system: HOP-92
# UO-31 = system: UO-31
compound,measurement,setting,value
CC1=C/C(O)CC(=O)Cc2nc(co2)C(=O)N2CCC=C2C(=O)OC(C(C)C)C(C)/C=C\C(=O)NC/C=C\1 (centres undefined),GI50,EKVX,18.8 µM (inactive)
same,GI50,M14,17.3 µM (inactive)
same,GI50,MDA-MB-231,23.9 µM (inactive)
same,GI50,LOX IMVI,17.2 µM (inactive)
same,GI50,A549,29.9 µM (inactive)
same,GI50,NCI-H460,54 µM (inactive)
same,GI50,HT-29,15.5 µM (inactive)
same,GI50,T47D,12.2 µM (inactive)
same,GI50,OVCAR-8,15.3 µM (inactive)
same,GI50,SK-OV-3,53.1 µM (inactive)
same,GI50,CCRF-CEM,21.6 µM (inactive)
same,GI50,SK-MEL-5,33.4 µM (inactive)
same,GI50,U-251,35.8 µM (inactive)
same,GI50,SK-MEL-2,17.4 µM (inactive)
same,GI50,CAKI-1,22 µM (inactive)
same,GI50,786-0,20.8 µM (inactive)
same,GI50,MDA-MB-435,24.8 µM (inactive)
same,GI50,BT-549,20.5 µM (inactive)
same,GI50,NCI-H23,17.1 µM (inactive)
same,GI50,TK-10,31.6 µM (inactive)
same,GI50,UACC-257,35.3 µM (inactive)
same,GI50,NCI-H226,17.7 µM (inactive)
same,GI50,SW-620,18.1 µM (inactive)
same,GI50,SF-268,16 µM (inactive)
same,GI50,KM12,12.4 µM (inactive)
same,GI50,HL-60,20.3 µM (inactive)
same,GI50,UACC-62,16 µM (inactive)
same,GI50,ACHN,12.5 µM (inactive)
same,GI50,HOP-62,31.5 µM (inactive)
same,GI50,OVCAR-3,19.8 µM (inactive)
same,GI50,SF-539,30.1 µM (inactive)
same,GI50,HCT-15,19.8 µM
same,GI50,OVCAR-5,18.8 µM (inactive)
same,GI50,SN12C,14.9 µM (inactive)
same,GI50,Hs-578T,20 µM (inactive)
same,GI50,SNB-75,11.3 µM (inactive)
same,GI50,PC-3,27.1 µM (inactive)
same,GI50,IGROV-1,16.6 µM (inactive)
same,GI50,DU-145,27.1 µM (inactive)
same,GI50,NCI-H522,0.176 µM (active)
same,GI50,MOLT-4,16.6 µM (inactive)
same,GI50,RPMI-8226,12.9 µM (inactive)
same,GI50,K562,31 µM (inactive)
same,GI50,SK-MEL-28,19.6 µM (inactive)
same,GI50,COLO 205,16.3 µM (inactive)
same,GI50,MCF7,19.1 µM (inactive)
same,GI50,SF-295,48 µM (inactive)
same,GI50,A498,23.6 µM (inactive)
same,GI50,MDA-N,14.2 µM (inactive)
same,GI50,SR,15 µM (inactive)
same,GI50,HCC 2998,19.1 µM (inactive)
same,GI50,HCT-116,14.5 µM (inactive)
same,GI50,SNB-19,89.3 µM (inactive)
same,GI50,OVCAR-4,57.9 µM (inactive)
same,GI50,Malme-3M,11.7 µM (inactive)
CC(C)(C)OC(=O)C1=C(C(=O)OC(C)(C)C)SC2(S1)C(C(=O)OC(C)(C)C)=C(C(=O)OC(C)(C)C)Sc1c2ssc1=O,GI50,EKVX,79.3 µM (inactive)
same,GI50,M14,95.7 µM (inactive)
same,GI50,MDA-MB-231,83.8 µM (inactive)
same,GI50,LOX IMVI,34.7 µM (inactive)
same,GI50,A549,72.3 µM (inactive)
same,GI50,NCI-H460,51.2 µM (inactive)
same,GI50,HT-29,86.5 µM (inactive)
same,GI50,T47D,61 µM (inactive)
same,GI50,OVCAR-8,49.9 µM (inactive)
same,GI50,SK-OV-3,> 100 µM (inactive)
same,GI50,CCRF-CEM,18.1 µM (inactive)
same,GI50,SK-MEL-5,> 100 µM (inactive)
same,GI50,U-251,49.1 µM (inactive)
same,GI50,SK-MEL-2,72.9 µM (inactive)
same,GI50,CAKI-1,83.8 µM (inactive)
same,GI50,MDA-MB-435,27.5 µM (inactive)
same,GI50,BT-549,67 µM (inactive)
same,GI50,NCI-H23,95.1 µM (inactive)
same,GI50,TK-10,> 100 µM (inactive)
same,GI50,UACC-257,> 100 µM (inactive)
same,GI50,SW-620,26.4 µM (inactive)
same,GI50,SF-268,60.1 µM (inactive)
same,GI50,KM12,> 100 µM (inactive)
same,GI50,HL-60,39.4 µM (inactive)
same,GI50,UACC-62,31.3 µM (inactive)
same,GI50,RXF 393,45.2 µM (inactive)
same,GI50,ACHN,44.1 µM (inactive)
same,GI50,HOP-62,64.9 µM (inactive)
same,GI50,OVCAR-3,48.2 µM (inactive)
same,GI50,HCT-15,> 100 µM
same,GI50,OVCAR-5,59.8 µM (inactive)
same,GI50,SN12C,38.3 µM (inactive)
same,GI50,Hs-578T,75.5 µM (inactive)
same,GI50,PC-3,41 µM (inactive)
same,GI50,IGROV-1,59.4 µM (inactive)
same,GI50,DU-145,31 µM (inactive)
same,GI50,NCI-H522,49.3 µM (inactive)
same,GI50,MOLT-4,7.67 µM (inactive)
same,GI50,RPMI-8226,48.1 µM (inactive)
same,GI50,K562,41.3 µM (inactive)
same,GI50,NCI/ADR-RES,> 100 µM (inactive)
same,GI50,SK-MEL-28,73.1 µM (inactive)
same,GI50,COLO 205,62.7 µM (inactive)
same,GI50,MCF7,49.2 µM (inactive)
same,GI50,SF-295,> 100 µM (inactive)
same,GI50,A498,> 100 µM (inactive)
same,GI50,HOP-92,> 100 µM (inactive)
same,GI50,UO-31,56.8 µM (inactive)
same,GI50,MDA-N,45.2 µM (inactive)
same,GI50,HCC 2998,> 100 µM (inactive)
same,GI50,HCT-116,47.3 µM (inactive)
same,GI50,SNB-19,> 100 µM (inactive)
same,GI50,OVCAR-4,24.6 µM (inactive)
same,GI50,Malme-3M,> 100 µM (inactive)
